From patent US10731159B2, “Cationic lipid” (DAIICHI SANKYO COMPANY, LIMITED, priority 2013, dated 2020)

Columns and labels:
Type in all cases: cell-based
human β-catenin gene [1] = experiment: Test Example 3: β-catenin gene expression inhibition in SW480 cells, 4 hours, real-time PCR
Method: (§1) As described below, the strength of human β-catenin gene expression inhibitory activity was compared among nucleic acid lipid particles each prepared using a novel lipid.
(§2) The concentration of a human colorectal cancer SW480 cell line (derived from human colorectal adenocarcinoma) was adjusted to 50000 cells/mL in a RPMI1640 medium (manufactured by Invitrogen Corp.) containing 10% fetal bovine serum (culture medium). Then, the resulting culture solution was inoculated at 100 μL/well to a 96-well flat-bottomed plate (manufactured by Corning Inc./Falcon) and cultured at 37° C. for 1 day under 5.0% CO2. The nucleic acid lipid particle-containing dispersion prepared in Example 31 was diluted with a culture medium to prepare dilution series having final double-stranded polynucleotide concentrations of 30, 3, 0.3, and 0.03 nM in the medium. Then, each dilution was added to the cells after removal of the culture supernatant, and the culture was further continued for 4 hours. This operation was performed at N=3 for each concentration.
A lysate and cDNA for real-time PCR measurement were prepared from the transfected cells using TaqMan® Fast-Cells-to-Ct kit (Life Technologies, Inc./Ambion) according to the instruction manual. In the lysate preparation, Lysis Solution supplemented with DNase I was used. […]
(§3) The quantitative analysis was conducted by the ΔΔCt method.

[2] = system: human hepatocellular carcinoma HuH-7 cell line; experiment: Test Example 11: expression level of luciferase (FLuc mRNA) in HuH-7 cells; details: six hours after transfection; for expression level of luciferase, RLU: average N=3
Method: The concentration of a human hepatocellular carcinoma HuH-7 cell line was adjusted to 10,000 cells/mL in a DMEM medium (manufactured by Invitrogen Corp.) containing 10% fetal bovine serum (culture medium). Then, the resulting culture solution was inoculated at 100 μL/well to a 96-well flat-bottomed plate (manufactured by Corning Inc./Falcon) and cultured at 37° C. for 1 day under 5.0% CO2. The nucleic acid lipid particle dispersion prepared in Example 58 was diluted with a culture medium to prepare dilution series having final mRNA concentrations of 2, 0.4, and 0.08 μg/mL in the medium. Then, each dilution was added to the cells after removal of the culture supernatant, and the culture was further continued. This operation was performed at N=3 for each concentration. A control group was cultured in only a culture medium.
Six hours after the transfection, the expression level of luciferase was measured using Luciferase reporter Gene Assay, high sensitivity (manufactured by F. Hoffmann-La Roche, Ltd.) according to the attached document.

human β-catenin gene [3] = experiment: Test Example 8: β-catenin gene expression inhibition in SW480 cells, procedures of Test Example 3, 50-0.05 nM; details: procedures of Test Example 3, 50, 5, 0.5, 0.05 nM, particles of Example 55, read-out: β-catenin gene expression inhibitory activity IC50
Method: as §2
(§4) A lysate and cDNA for real-time PCR measurement were prepared from the transfected cells using TaqMan® Fast-Cells-to-Ct kit (Life Technologies, Inc./Ambion) according to the instruction manual. In the lysate preparation, Lysis Solution supplemented with DNase I was used. The probes for real-time PCR used were TaqMan® Gene Expression Assays (CTNNB1, FAM probe) (Hs00355045_m1, manufactured by Applied Biosystems, Inc.) for the human β-catenin gene and a human GAPDH gene probe as an internal standard (VIC probe, Hs99999905_m1, manufactured by Applied Biosystems, Inc.). 5 μL of TaqMan® Fast Advanced Master Mix, 2 μL of RNase-Free Water, 0.5 μL of each gene probe, and 2 μL of the prepared cDNA solution were added per well of a 384-well PCR plate (manufactured by Applied Biosystems, Inc.) to bring the total amount to 10 μL, which was then loaded in ViiA™ 7 Real-time PCR system (manufactured by Applied Biosystems, Inc.) and subjected to PCR under conditions given below. The real-time PCR was carried out at N=4 for the cDNA prepared from the lysate.
as §3
By the same procedures as in Test Example 3, SW480 cells were treated with 50 nM, 5 nM, 0.5 nM, and 0.05 nM each of nucleic acid lipid particles each prepared using a novel lipid, and the strength of human β-catenin gene expression inhibitory activity was compared among these particles.

human β-catenin gene [4] = experiment: Test Example 1: β-catenin gene expression inhibition in SW480 cells, 3 days, real-time PCR; details: nucleic acid lipid particle of Example 31 containing the named lipid, double-stranded polynucleotide concentration, read-out: β-catenin gene expression inhibitory activity IC50
Method: as §1
as §2, with “to 50,000” for “to 50000”, “in an” for “in a”, “lipid particle” for “lipid particle-containing”, “30, 3.0,” for “30, 3,”, “for 3 days.” for “for 4 hours.”
as §4
(§5) PCR initial activation: 95° C. for 20 seconds
(§6) PCR: 95° C. for 1 second • 62° C. for 20 seconds
(§7) This PCR cycle was repetitively performed 40 times.
as §3

human β-catenin gene [5] = experiment: Test Example 2: β-catenin gene expression inhibition in HepG2 cells, 3 days, real-time PCR; details: nucleic acid lipid particle of Example 31 containing the named lipid, read-out: β-catenin gene expression inhibitory activity IC50
Method: as §1
as §2, with “liver” for “colorectal”, “HepG2” for “SW480”, “liver cancer)” for “colorectal adenocarcinoma)”, “DMEM” for “RPMI1640”, “3 days.” for “4 hours.”
as §4, §5, §6, §7, §3

IC50 (human β-catenin gene [1]; nucleic acid lipid particle of Example 31 containing the named lipid, read-out: β-catenin gene expression inhibitory activity IC50) | SMILES | inhibitory activity against β-catenin gene expression (in words) (human β-catenin gene [1]; compared with particle containing lipid compound 1) | expression level of luciferase, RLU ([2]; FLuc mRNA concentration 0.08 μg/mL) | expression level of luciferase, RLU ([2]; FLuc mRNA concentration 0.4 μg/mL) | expression level of luciferase, RLU ([2]; FLuc mRNA concentration 2.0 μg/mL) | expression of FLuc (in words) ([2]; particle of Example 58) | IC50 (human β-catenin gene [3]) | IC50 (human β-catenin gene [4]) | IC50 (human β-catenin gene [5])
0.0083 µM | CCCCC/C=C\C/C=C\CCCCCCCC(CCCCCCCCCC)OC(=O)OCCCN(C)C (stereo not drawn) [Example 8, 3-Dimethylaminopropyl(9Z,12Z)-octacosa-19,22-dien-11-yl Carbonate] | strong inhibitory activity | 0.7 1 × 10^5 | 2.7 1 × 10^5 | 3.7 1 × 10^5 | promote the expression of FLuc | – | – | –
– | CCCCC/C=C\C/C=C\CCCCCCCCC(CCCCCCCC/C=C\C/C=C\CCCCC)OC(=O)OCCN(C)C [Reference Example 2, 2-(Dimethylamino)ethyl(6Z,9Z,28Z,31Z)-heptatriaconta-6,9,28,31-tetraen-19-yl Carbonate, reference compound] | – | – | – | – | – | > 0.05 µM | > 0.03 µM | > 0.03 µM
